In patent US8178658B2 (Dow AgroSciences, LLC, priority 2008, dated 2012):

Key:
[1] = test system: beet armyworm (BAW; Spodoptera exigua: Lepidoptera); assay: 96-well microtiter plate-based high throughput (HTS) diet bioassay on beet armyworm (BAW HTS); format: in vivo; conditions: BAW eggs, 12 μg test compound per well, mortality at 6 d post-treatment, mortality class
In short: (§1)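 HTS: eggs on diet topped with 12 μg cpd/well; dark, 29° C; mortality day 6; mean of 6 reps. Tray: 3–5 L2 larvae/well; diet dosed 50 μg/cm^2; 25° C, 14:10 L:D; 6 d; mean of 8 wells. Scored as ≥50% mortality or not.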

[2] = test system: beet armyworm (BAW; Spodoptera exigua: Lepidoptera); assay: 128-well diet tray assay on beet armyworm (BAW 50); format: in vivo; conditions: 128-well diet tray assay; 50 μg/cm^2 of test compound on diet; second instar BAW larvae; mortality class
In short: as §1

[3] = 96-well microtiter plate HTS diet assay

Row | SMILES | BAW HTS ([1]; 96-well HTS diet assay) | BAW HTS [1, 3] | BAW 50 ug/cm2 [2]
1 | CCO[C@@H]1[C@@H](OC)[C@H](C)O[C@@H](OC(=O)Nc2ccc(-c3ncn(-c4ccc(C(F)(F)F)cc4)n3)cc2)[C@@H]1OC [Compound 192] | A (the compound was tested and at least 50 percent mortality was observed) | A (the compound was tested and at least 50 percent mortality was observed) | A (the compound was tested and at least 50 percent mortality was observed)
2 | CCO[C@@H]1[C@@H](OC)[C@H](C)O[C@@H](OC(=O)Nc2ccc(-c3ncn(-c4ccc(OC(F)(F)F)cc4)n3)cc2)[C@@H]1OC [Compound 193] | B (either (1) the compound was tested and less than 50 percent mortality was observed or (2) the compound was not tested) | B (either (1) the compound was tested and less than 50 percent mortality was observed or (2) the compound was not tested) | A (the compound was tested and at least 50 percent mortality was observed)
3 | CO[C@@H]1[C@@H](OC)[C@H](C)O[C@@H](OC(=O)Nc2ccc(-c3nc(C)n(-c4ccc(OC(F)(F)F)cc4)n3)cc2)[C@@H]1OC [Compound 194] | A (the compound was tested and at least 50 percent mortality was observed) | A (the compound was tested and at least 50 percent mortality was observed) | A (the compound was tested and at least 50 percent mortality was observed)
4 | CO[C@@H]1[C@@H](OC)[C@H](C)O[C@H](OC(=O)Nc2ccc(-c3nc(C)n(-c4ccc(OC(F)(F)F)cc4)n3)cc2)[C@@H]1OC [Compound 195] | B (either (1) the compound was tested and less than 50 percent mortality was observed or (2) the compound was not tested) | B (either (1) the compound was tested and less than 50 percent mortality was observed or (2) the compound was not tested) | A (the compound was tested and at least 50 percent mortality was observed)
5 | CO[C@@H]1[C@@H](OC)[C@H](C)O[C@@H](OC(=O)Nc2ccc(-c3ncn(-c4ccc(Oc5ccc(Cl)cc5)cc4)n3)cc2)[C@@H]1OC [Compound 196] | A (the compound was tested and at least 50 percent mortality was observed) | A (the compound was tested and at least 50 percent mortality was observed) | A (the compound was tested and at least 50 percent mortality was observed)
6 | CCCCO[C@@H]1[C@@H](OC)[C@H](C)O[C@@H](OC(=O)Nc2ccc(-n3cnc(-c4ccc(C)cc4)n3)cc2)[C@@H]1OC [Compound 197] | A (the compound was tested and at least 50 percent mortality was observed) | A (the compound was tested and at least 50 percent mortality was observed) | A (the compound was tested and at least 50 percent mortality was observed)
7 | CCCCO[C@@H]1[C@@H](OC)[C@H](C)O[C@@H](OC(=O)Nc2ccc(-n3cnc(-c4ccc(C(F)(F)F)cc4)n3)cc2)[C@@H]1OC [Compound 198] | A (the compound was tested and at least 50 percent mortality was observed) | A (the compound was tested and at least 50 percent mortality was observed) | A (the compound was tested and at least 50 percent mortality was observed)
8 | CCCCO[C@@H]1[C@@H](OC)[C@H](C)O[C@H](OC(=O)Nc2ccc(-n3cnc(-c4ccc(C(F)(F)F)cc4)n3)cc2)[C@@H]1OC [Compound 199] | A (the compound was tested and at least 50 percent mortality was observed) | A (the compound was tested and at least 50 percent mortality was observed) | A (the compound was tested and at least 50 percent mortality was observed)
9 | CO[C@@H]1[C@@H](OC)[C@H](C)O[C@@H](OC(=O)Nc2ccc(-c3ncn(-c4ccc(OC(F)(F)C(F)(F)F)cc4)n3)cc2)[C@@H]1OC [Compound 200] | A (the compound was tested and at least 50 percent mortality was observed) | A (the compound was tested and at least 50 percent mortality was observed) | A (the compound was tested and at least 50 percent mortality was observed)
